Here are results for ten compounds from US6602896B1, “p38MAPK inhibitor and uses thereof” (The Board of Trustees of the University of Arkansas, priority 1999, dated 2003).

Assay [1] concerns LDL receptor expression. The experiment in a line: Northern blotting of LDL receptor mRNA in HepG2 cells. Particulars: HepG2 cells; for effect on SB202190-induced LDL receptor expression: inhibitor added 30 min before SB202190 (2.5 μM, 4 h); for induction of LDL receptor expression (Northern blotting): inhibitor alone, 0.5% FBS. The class given is cell-based, human. As for the experimental part: 5×10^5 cells were plated on day 0. On day 2, cells were refed with fresh medium. On day. 4, cells were either left untreated (0) or treated for the indicated times with SB202190 (2.5 μM) in medium containing 0.5% FBS. Total RNA was isolated and subjected to Northern blotting to determine amounts of LDL receptor, squalene synthase (SS) genes, and actin mRNAs. Autoradiographs were quantitated densitometrically. LDL receptor mRNA levels were normalized to actin mRNA levels. In the bottom panel, results are expressed as the fold induction by SB 202190 as compared with uninduced cells (set at 1). Values obtained are the averages of three separate experiments, with the standard deviations shown.
HepG2 cells were grown as described in FIG. 1. On day 4, medium was changed to either 10% LPDS alone or 10% LPDS supplemented with 25-hydroxycholesterol (2 μg/ml) and cholesterol (10 μg/ml), and after 2 hours, cells were treated with indicated concentrations of SB202190 for an additional 4 hours. Levels of LDL receptor and SS mRNAs were determined by Northern analysis and densitometry as described previously. RNA levels were normalized by comparison with levels of actin. Values obtained from cells cultured in the absence of sterols and SB202190 were set at 1. Values shown are the average of two different experiments.
Total RNA was subjected to Northern blot analysis, and the filter was hybridized with a ^32P-labeled LDL receptor probe. Values shown are the averages of two different experiments. […] Values obtained from the control cells grown in the absence of SB202190 or PD98059 were arbitrarily set at 1.
HepG2 cells were grown as described in FIG. 1. On day 4, cells cultured for 1 h in 0.5% FBS containing different amounts of cycloheximide (1 μg/ml, 2 μg/ml, and 5 μg/ml) were then incubated with SB202190 (2.5 μM) for an additional 4 h. LDL receptor and actin mRNA levels were analyzed by Northern blotting of total RNA. Values obtained from cells with no additions were arbitrarily set at 1. […] Results shown are representative of one experiment.
In FIG. 8A, HepG2 cells were pretreated for 30 minutes with the indicated concentration of the above inhibitors and then treated with […] SB202190 for an additional 4 hours. Total RNA was subjected to Northern blotting for measurement of LDL receptor mRNA levels.
(§1) Human hepatoma cell line HepG2 and its derivative HepG2-ΔRaf-1:ER cell line that stably expresses the ΔRaf-1:ER chimera were maintained as monolayer cultures in a humidified 5% CO2 atmosphere at 37° C. in Eagle's minimum essential medium (EMEM) (Bio Whittaker, Md.) supplemented with 10% fetal bovine serum (FBS) (Life Technologies Inc.), 2 mM L-glutamine, 20 units/ml penicillin and 20 μg/ml streptomycin sulphate.
Total RNA was isolated using TRIzol, and Northern blotting was done essentially as described earlier (43, 44). Briefly, 20 μg total cellular RNA was fractionated on 1% formaldehyde agarose gel and transferred to Zeta Probe membrane by capillary blotting. RNA blots were hybridized with LDL receptor and squalene synthase specific single-stranded M13 probes labeled with [α-^32P ]dCTP. Hybridized filters were washed and exposed to Kodak X-ray film. The relative intensities of specific bands were determined densitometrically within the linear range of the film on a model 300A laser densitometer (Molecular Dyanamics, Calif.) with Image Quant software. LDL receptor mRNA was normalized to squalene synthase (SS) (included in this study) or to α-actin (data not shown) mRNA level, and data for each point were plotted as the percentage of LDL receptor mRNA as compared to controls. […]

The test system of assay [2] is p42/44^MAPK. The experiment in a line: p42/44MAPK activation in HepG2-ΔRaf-1:ER cells. The class given is cell-based, human. As to conditions: 1 μM ICI 182,780. As for the experimental part:
(§2) Cells were either left untreated or stimulated with 1 μM ICI 182,780 for 1.5 h, and then treated with either anisomycin (50 ng/ml) or IL-1β(5 ng/ml) for 30 min. Cells were then lysed in SDS sample buffer, and equal amounts of whole cell lysates were separated by SDS-PAGE in 10% gels. Activated MAPKs levels were analyzed by blotting using anti-phospho-p42/44^MAPK, and anti-phospho-p38^MAPK. Protein levels were analyzed by using phosphorylation-independent anti-p42/44^MAPK following electrotransfer of total proteins onto nitrocellulose. Similar results were obtained in three separate experiments. […]
(§3) Proteins were fractionated by SDS-PAGE with an 10% acrylamide separation gel, and the separated proteins were transferred to nitrocellulose, and processed as described previously (43, 44). […] After further washing in Tris/NaCl/Tween-20, membranes were incubated for 1 h with horseradish peroxidase-linked anti-IgG secondary antibody (Bio-Rad, diluted 1:5000), and immunoreactive proteins were detected by ECL as described by the supplier. Quantitative analyses of protein levels were performed by densitometric scanning of the autoradiograms, and are representative of 3 or more independent experiments.
(§4) Whether inhibition or activation of p42/44^MAPK regulates p38^MAPK activation by stress-inducers was determined next. […]

Assay [3] has as its system p38^MAPK. The experiment in a line: p38MAPK activation by stress-inducers in HepG2-ΔRaf-1:ER cells. Particulars: 1 μM ICI 182,780 1.5 h, then anisomycin (50 ng/ml) or IL-1β (5 ng/ml) 30 min. The format is cell-based, human. The procedure: as §2, §3, §4
The test system of assay [4] is p42/44^MAPK. The experiment in a line: Immunoblot of phospho-p42/44MAPK in HepG2 cells. The class given is cell-based, human. Particulars: inhibitor added 30 min before SB202190 (2.5 μM, 4 h). The procedure:
(§5) 2×10^5 cells were grown and treated as described in FIG. 1. After the indicated times, equal amounts of cell lysates were blotted with anti-phospho-p42/44^MAPK antibody, phosphorylation-independent p42/44^MAPK antibody, anti-phospho p46/54^JNK antibody, anti-phospho-MEK-1/2, or phosphorylation-independent MKP-1.
HepG2 cells were cultured in the absence or presence of 1 μM staurosporine or 5 μM PD98059 for 30 min. SB202190 (2.5 μM) was then added to the cells for 4 h, cell lysate was subjected to immunoblotting to measure the phosphorylation levels of p42/44^MAPK and MEK-1/2.
as §1
Proteins were fractionated by SDS-PAGE with an 10% acrylamide separation gel, and the separated proteins were transferred to nitrocellulose, and processed as described previously (43, 44). Briefly, membranes were incubated in 20 mM Tris-HCl, pH 7.6, 137 mM NaCl, 0.2% v/v Tween-20 (Tris/NaCl/Tween-20) with 5% w/v non-fat dried milk for 1 h, washed in Tris/NaCl/Tween-20 (3×5 min), and incubated for 1 h with primary antibody in Tris/NaCl/Tween-20 containing 1% milk at room temperature for non phospho-specific antibodies and overnight at 4° C. for phospho-specific antibodies. The following dilutions were used for individual antibodies against different proteins: p42/44^MAPK (1:1600); phosphop-42/44^MAPK (1:1000); phosphop-46/54^JNK (1:1000); phospho-p38^MAPK (1:1600); phospho-MEK-1/2 (1:1000); MKP-1 (1:1500). After further washing in Tris/NaCl/Tween-20, membranes were incubated for 1 h with horseradish peroxidase-linked anti-IgG secondary antibody (Bio-Rad, diluted 1:5000), and immunoreactive proteins were detected by ECL as described by the supplier. Quantitative analyses of protein levels were performed by densitometric scanning of the autoradiograms, and are representative of 3 or more independent experiments.
HepG2 cells were incubated with SB202190, and the activity of p42/44^MAPK and p46/54^JNK was determined by immunoblot analysis with antibodies that recognized the activated phosphorylated forms of these kinases in cell extracts obtained at different times.

Assay [5] has as its system LDL receptor expression. The experiment in a line: Northern blotting of LDL receptor mRNA in HeLa cells. The format is cell-based. As to conditions: PD98059 (5 μM) added 30 min before SB202190 (2.5 μM) 4 h. As for the experimental part: PD98059 was added 30 min prior to addition of SB202190. After the indicated times, total RNA was isolated and subjected to Northern blotting. […] Total RNA was isolated using TRIzol, and Northern blotting was done essentially as described earlier (43, 44). Briefly, 20 μg total cellular RNA was fractionated on 1% formaldehyde agarose gel and transferred to Zeta Probe membrane by capillary blotting. RNA blots were hybridized with LDL receptor and squalene synthase specific single-stranded M13 probes labeled with [α-^32P ]dCTP. Hybridized filters were washed and exposed to Kodak X-ray film. The relative intensities of specific bands were determined densitometrically within the linear range of the film on a model 300A laser densitometer (Molecular […], Calif.) with Image Quant software. LDL receptor mRNA was normalized to squalene synthase (SS) (included in this study) or to α-actin (data not shown) mRNA level, and data for each point were plotted as the percentage of LDL receptor mRNA as compared to controls.

The subject of a further assay is other MAPKs. The experiment in a line: Activity of other MAPKs on inhibition of p42/44MAPK. The class given is cell-based. As to conditions: inhibition of p42/44MAPK with PD98059; data not shown.
For assay [6], the system named is p38^MAPK. Particulars: concentrations that completely blocked p42/44MAPK activation by MEK-1/2; cited from earlier work.
The test system of assay [7] is p38^MAPK α- and β-isoforms. Particulars: cited from earlier work.
The test system of another assay is MEK-1/2. The experiment in a line: Immunoblot of phospho-MEK-1/2 in HepG2 cells. The format is cell-based, human. Particulars: 1 μM staurosporine 30 min, then SB202190 (2.5 μM) 4 h. The procedure: as §5
HepG2 cells were cultured in the absence or presence of 1 μM staurosporine or 5 μM PD98059 for 30 min. SB202190 (2.5 μM) was then added to the cells for 4 h, cell lysate was subjected to immunoblotting to measure the phosphorylation levels of p42/44^MAPK and MEK-1/2. […]
as §3

Consider `CN(C)CCCn1cc(C2=C(c3c[nH]c4ccccc34)C(=O)NC2=O)c2ccccc21` [Bis I], for which, in the assay with LDL receptor expression [1], the “effect on SB202190-induced LDL receptor expression” value is given as “has no effect”. On to `Cn1c2ccccc2c2c3c(c4c5ccccc5n(CCC#N)c4c21)CNC3=O` [Go6976], for which, in the assay on LDL receptor expression [1], the “effect on SB202190-induced LDL receptor expression” value was “has no effect”.

`C[C@]12CC[C@@H]3c4ccc(O)cc4C[C@@H](CCCCCCCCC[S+]([O-])CCCC(F)(F)C(F)(F)F)[C@H]3[C@@H]1CC[C@@H]2O` (stereo partly shown) [ICI 182780]: in the assay with p42/44^MAPK [2], the “stimulation of p42/44MAPK” value is “stimulated p42/44^MAPK within minutes”. The “effect on p38MAPK activation by anisomycin or IL-1β” value in the assay on p38^MAPK [3] is listed as “no significant effects”. For the compound `COc1cccc(-c2cc(=O)c3ccccc3o2)c1N` [PD98059, 2-(2′-amino-3′-methoxyphenyl) oxanaphthalen-4-one], the “effect on SB202190-induced LDL receptor expression” value in the assay on LDL receptor expression [1] was “inhibited”. The “effect on SB202190-induced p42/44MAPK phosphorylation/activation” value in the assay on p42/44^MAPK [4] is listed as “inhibited”. Further, in the assay with LDL receptor expression [5], the “effect on SB202190-induced LDL receptor expression in HeLa cells” value is “blocked SB202190-induced LDL receptor expression”. Further, in the assay with other MAPKs, the “effect on activity of other MAPKs” value is recorded as “has no effect on activity of other MAPKs”. The “effect on p38MAPK activation in response to IL-1β or TNF” value with p38^MAPK [6] was “failed to block p38^MAPK activation”. As for `CCc1nc(-c2ccc(OC)cc2)[nH]c1-c1ccncc1` [SB202474], the “induction of LDL receptor expression (Northern blotting)” value in the assay on LDL receptor expression [1] is listed as “did not induce LDL receptor expression”. For the compound `C[S+]([O-])c1ccc(-c2nc(-c3ccc(F)cc3)c(-c3ccncc3)[nH]2)cc1` (stereo not shown) [SB203580, 4-(4-Fluorophenyl)-2-(4-methylsulfinylphenyl)-5-(4-pyridyl) 1H-imidazole], in the assay on LDL receptor expression [1], the “most effective concentration for LDL receptor induction” value amounted to 10 µM and the “induction of LDL receptor expression (Northern blotting)” value is recorded as “also induced LDL receptor expression”. For the same compound, the “inhibition of p38MAPK α- and β-isoforms” value in assay [7] was “selectively inhibit both p38^MAPK α- and β-isoforms”. As to `C[C@@H]1C[C@@H]([C@H](O)CC2CC(=O)NC(=O)C2)C(=O)[C@@H](C)C1` [cycloheximide], the “effect of inhibition of translation on SB202190-induced LDL receptor expression” value in the assay on LDL receptor expression [1] (cycloheximide 1, 2, 5 μg/ml for 1 h, then SB202190 (2.5 μM) 4 h) is given as “no effect on LDL receptor expression”. Regarding `COc1ccc2c(c1)c(CC(=O)O)c(C)n2C(=O)c1ccc(Cl)cc1` [indomethacin], the “effect on LDL receptor expression” value with LDL receptor expression [1] (10 μM indomethacin) is “did not significantly alter LDL receptor expression”. In the case of `CN[C@@H]1C[C@H]2O[C@@](C)([C@@H]1OC)n1c3ccccc3c3c4c(c5c6ccccc6n2c5c31)C(=O)NC4` [staurosporine], the “effect on SB202190-induced LDL receptor expression” value with LDL receptor expression [1] is given as “completely prevented”. Also, in the assay on p42/44^MAPK [4], the “effect on SB202190-induced p42/44MAPK phosphorylation/activation” value was “blocked”. The “effect on SB202190-induced MEK-1/2 activation” value with MEK-1/2 is “blocked”. Regarding calphostin C, the “effect on SB202190-induced LDL receptor expression” value with LDL receptor expression [1] was “has no effect”.
